Assay results taken from publication PMC6826928, “A New Natural Antioxidant Biomaterial from Cinnamomum osmophloeum Kanehira Leaves Represses Melanogenesis and Protects against DNA Damage” (Antioxidants, 2019).

Tested on: T1, mushroom tyrosinase
T1 construct: gene PPO3; commercial native preparation from Merck; likely isoenzyme mixture
Assay: absorbance at […] nm, Lineweaver–Burk plot
Assay type: biochemical
Settings: no inhibitor, 0.2 M sodium phosphate pH 6.8, 25 °C

Row | Km (diphenolase activity) [mg/mL] | Km (monophenolase activity) [mg/mL] | Structure (SMILES)
1 | 0.511 |  | N[C@@H](Cc1ccc(O)c(O)c1)C(=O)O [L-DOPA, L-3,4-dihydroxyphenylalanine]
2 |  | 0.534 | N[C@@H](Cc1ccc(O)cc1)C(=O)O [L-tyrosine]
